Measurements taken from PMC11818225, “Multifaceted Sulfonamide-Derived Thiosemicarbazones: Combining Metal Chelation and Carbonic Anhydrases Inhibition in Anticancer Therapy” (International Journal of Molecular Sciences, 2025).
Entries after “also recorded” stand apart in the source; their conditions may differ. Like-named read-outs stand apart in the source and are kept apart here.

Columns and labels:
[1] = system: SW1573 cells; assay: Label-free continuous live cell imaging (holotomographic 3D microscopy); format: cell-based, human; conditions: 20 μM, 20 h
Experimental: Live imaging allows researchers to observe progressive cytostatic effects or cell death of treated cells, enabling the identification of several apoptotic hallmarks. In order to characterize the phenotypic effects of the compounds 4a and 5b on cancer cells, the evolution of the culture was monitored every 3 min using label-free holotomographic 3D microscopy. SW1573 cells were exposed to 4a and 5b at a concentration of 20 μM for 20 h (Supplementary Material, videos S1–S3). Untreated SW1573 cells (control) moved freely and divided throughout the experimental time frame.
The CX-A imaging platform microscope (Nanolive SA, Lausanne, Switzerland) was used to measure refractive indices, creating a holotomographic 3D image of the cells. SW1573 cells were seeded onto 35 mm cell culture imaging dishes (IBIDI GmbH, Gräfelfing, Germany) at a density of 50.000 cells/well. On the next day, treated cells were exposed to the test compounds right before the acquisition of the images. Image data were transferred to FIJI software v2.9.0 (NIH, USA) for image analysis. EVE software v2.2.1.2162 (Nanolive S.A., Tolochenaz, Switzerland)) was used for the analysis of the refractive indices and calculation of the phenotypic parameters.

[2] = system: HeLa (cervix); assay: Antiproliferative SBR assay (NCI protocol), HeLa; format: cell-based, human; conditions: Homo sapiens, HeLa; 48 h exposure, n = 3, mean ± SD
From the text: (§1) The latter two represent multidrug-resistant cell lines.

[3] = system: SW1573 (non-small cell lung)
Experimental: The potential antiproliferative activity of sulfonamides synthesized in this study was evaluated in vitro using the SBR assay, following the US NCI protocol. A panel of six tumor cell lines was employed: A549 (non-small cell lung), HBL-100 (breast), HeLa (cervix), SW1573 (non-small cell lung), T-47D (breast), and WiDr (colon). The latter two represent multidrug-resistant cell lines.
Cells were maintained in culture in 60 mm cell culture dishes in growth medium (10 mL) and passaged twice weekly.
The antiproliferative activity of compounds was tested using our implementation of the protocol of the National Cancer Institute (NCI) of the USA. The following seeding densities (cells per well) were used: 2500 (A549, HBL-100, HeLa, and SW1573) and 5000 (T-47D and WiDr). Stock solutions of inhibitors (40 mM) were prepared in pure DMSO (400 times the maximum test concentration).

[4] = system: WiDr (colon); assay: Antiproliferative SBR assay (NCI protocol), WiDr; format: cell-based, human; conditions: Homo sapiens, WiDr; 48 h exposure, n = 3, mean ± SD; multidrug-resistant line
From the text: as §1

[5] = system: A549 (non-small cell lung); assay: Antiproliferative SBR assay (NCI protocol), A549; format: cell-based, human; conditions: Homo sapiens, A549; 48 h exposure, n = 3, mean ± SD
From the text: as §1

[6] = system: HBL-100 (breast); assay: Antiproliferative SBR assay (NCI protocol), HBL-100; format: cell-based, human; conditions: Homo sapiens, HBL-100; 48 h exposure, n = 3, mean ± SD
From the text: as §1

[7] = system: A549, HBL-100, HeLa, SW1573, T-47D, WiDr; assay: Antiproliferative SBR assay, panel of six tumor cell lines (summary statements); format: cell-based; conditions: Homo sapiens
From the text: as §1

[8] = system: T-47D (breast); assay: Antiproliferative SBR assay (NCI protocol), T-47D; format: cell-based, human; conditions: Homo sapiens, T47D; 48 h exposure, n = 3, mean ± SD; multidrug-resistant line
From the text: as §1

[9] = biological target: human CA I (Homo sapiens, UniProt P00915); assay: Stopped-flow CO2 hydrase assay, CA I
human CA I, sequence (P00915 whole entry): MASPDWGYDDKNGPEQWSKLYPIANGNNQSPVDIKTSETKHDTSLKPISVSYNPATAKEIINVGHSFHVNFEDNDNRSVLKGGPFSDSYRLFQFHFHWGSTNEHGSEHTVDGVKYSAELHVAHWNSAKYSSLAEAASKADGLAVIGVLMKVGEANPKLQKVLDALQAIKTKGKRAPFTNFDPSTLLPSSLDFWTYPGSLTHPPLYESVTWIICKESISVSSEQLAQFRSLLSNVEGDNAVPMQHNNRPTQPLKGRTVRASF

[10] = Metal complexation assay by UV-Vis spectroscopy; format: physicochemical; conditions: DMSO, 25 °C
Experimental: The ability of 5b, as a model compound, to complex metal cations associated with tumorigenesis (Na^+, K^+, Fe^2+, Fe^3+, Zn^2+, and Cu^2+) was analyzed using UV–Vis spectroscopy. To investigate this, UV–Vis spectra of solutions with varying ratios of 5b to metal chlorides (1:0, 4:1, 2:1, 1:1, 1:2, 1:5) were recorded. Additionally, a 1:2 ligand-to-metal spectrum was obtained after 72 h of incubation to account for potential slow complexation. […] For ZnCl2, only a weak effect was observed after incubation, and no significant changes were detected without incubation, regardless of the ligand-to-Zn^2+ ratio (Figure 6C).
The complexation of 5b with different metal chlorides (NaCl, KCl, FeCl2, FeCl3, ZnCl2, and CuCl2) was investigated using UV–Vis spectroscopy (Jasco V-360). The stock solutions of the salts (10^−2 M) and the ligand (2.5 mM) were prepared in pure DMSO and sonicated when necessary. To 20 µL of a 2.5 mM solution of 5b were added different aliquots of the metal chlorides solutions up to a total volume of 2 mL in quartz cuvettes. The following ligand–metal ratios were used: 1:0.25, 1:0.5, 1:1, 1:2, 1:5, and 1:10. The absorbance was monitored at 25 °C in the range 280–440 nm, either with or without incubation. A blank solution without 5b was also prepared for each concentration of the salt, and its spectrum was subtracted from the ligand–salt spectrum.

[11] = biological target: human CA IX (Homo sapiens, UniProt Q16790); assay: Stopped-flow CO2 hydrase assay, CA IX
[12] = biological target: human CA XII (Homo sapiens, UniProt O43570); assay: Stopped-flow CO2 hydrase assay, CA XII
human CA XII, sequence (O43570 25-354): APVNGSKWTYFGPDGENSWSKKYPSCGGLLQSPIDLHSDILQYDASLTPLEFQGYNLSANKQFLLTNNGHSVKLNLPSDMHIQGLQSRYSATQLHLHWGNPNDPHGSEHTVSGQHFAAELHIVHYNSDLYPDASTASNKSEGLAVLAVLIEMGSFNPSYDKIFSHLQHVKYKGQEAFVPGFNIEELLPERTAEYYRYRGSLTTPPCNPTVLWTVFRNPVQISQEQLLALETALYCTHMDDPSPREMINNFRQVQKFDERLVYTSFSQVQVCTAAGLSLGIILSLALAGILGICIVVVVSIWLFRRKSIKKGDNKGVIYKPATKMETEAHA

[13] = biological target: human CA II (Homo sapiens, UniProt P00918); assay: Stopped-flow CO2 hydrase assay, CA II
[14] = range over six tumor cell lines, read-out: GI50 range across all tested cell lines
[15] = read-out: GI50 in five out of six cell lines

Row | Compound | Phenotypic effects on cancer cells [1] | GI50 [2] [µM] | GI50 [3] [µM] | GI50 [4] [µM] | GI50 [5] [µM] | GI50 [6] [µM] | GI50 [7, 14] [µM] | GI50 [8] [µM] | GI50 [7, 15] [µM] | other results
1 | NS(=O)(=O)c1ccc(NC(=S)N/N=C/c2ccccc2)cc1 [Compound 4a, 1-Phenylmethylene-4-(4′-sulfonamidophenyl)-3-thiosemicarbazone] | cell division was retarded and apoptotic features were observed in some cells | 2.3 ± 0.2 | 2.9 ± 1.4 | 4.5 ± 1.4 | 5.1 ± 3.7 | 3 ± 1.6 | 2.3 to 5.1 | 2.6 ± 0.1 |  | 
2 | NS(=O)(=O)c1ccc(NC(=S)N/N=C/c2ccccn2)cc1 [Compound 5a, 1-(Pyridin-2′-ylmethylene)-4-(4″-sulfonamidophenyl)-3-thiosemicarbazone] |  | 5.2 ± 0.3 | 4.2 ± 0.1 | 3.8 ± 0.3 | 18 ± 2 | 5.2 ± 2.2 |  | 5.7 ± 2.1 | < 10 | 
3 | NS(=O)(=O)c1cccc(NC(=S)N/N=C/c2ccccn2)c1 [Compound 5b, 1-(Pyridin-2′-ylmethylene)-4-(3″-sulfonamidophenyl)-3-thiosemicarbazone] | cell division was retarded and apoptotic features were observed in some cells; also recorded: delayed tumor cell division and features indicative of apoptosis | 5.8 ± 0.4 | 7.1 ± 0.4 | 4.5 ± 0.6 | 10 ± 2 | 7.8 ± 2 | 4.5 to 10 | 5.3 ± 0.7 | < 10 | Ki [9]: 0.538 µM; Chelation of Cu2+ ([10]; CuCl2 titration): efficiently chelated; also recorded: efficient ligand for chelating; also recorded: effective chelation; Chelation of Fe2+ ([10]; FeCl2 titration): efficiently chelated; also recorded: to a lesser extent; also recorded: effective chelation; Chelation of Fe3+ ([10]; FeCl3 titration): efficiently chelated; also recorded: to a lesser extent; Chelation of K+ ([10]; KCl titration): does not chelate; Chelation of Na+ ([10]; NaCl titration): does not chelate; Chelation of Zn2+ ([10]; ZnCl2 titration): notably weaker; Ki [11]: 0.0049 µM; Selectivity Ratio I/IX ([11]; Ki CA I / Ki CA IX): 109.8; Selectivity Ratio II/IX ([11]; Ki CA II / Ki CA IX): 0.49; Ki [12]: 0.0056 µM; Selectivity Ratio I/XII ([12]; Ki CA I / Ki CA XII): 96.1; Ki [13]: 0.0025 µM
